Tests used:
PDE10 = target: T1, PDE10 (Homo sapiens, UniProt Q9Y233); assay: PDE10 biochemical assay (two-step Thompson and Appleman method or SPA); conditions: PDE10 inhibition
T1 construct: made in house; host or cells: Sf9 insect cells (baculovirus)
Description: In short, cAMP is spiked with (^3H)cAMP and incubated with PDE10 and various concentrations of a compound of structure (I). After the appropriate incubation time, the reaction is terminated by heating. The mixture is then subjected to treatment with snake venom phosphatase. The phosphatase hydrolyzes any AMP in the mixture, but leaves unreacted cAMP intact. Thus, by separating cAMP from the mixture and determining its concentration (by radiography), the percent of inhibition can be determined. IC50 values can be calculated by performing the experiment at several concentrations using standard graphical means. A detailed description of the actual technique used for IC50 assays as set forth in following Examples.
The phosphodiesterase (PDE) assay was performed using recombinant human PDE 1A3, 2A3, 3 catalytic region, 4 catalytic region, 5 catalytic region, 7A, 8A, 9A2, 10A1 and 11A1 enzymes expressed in a baculoviral system using Sf9 cells. PDE activity was measured using a modification of the two-step method of Thompson and Appleman described above which was adapted for 96 well plate format. […] The final assay volume was 110 μl with assay buffer (10 mM MgCl2; 40 mM Tris.HCl; pH 7.4). Reactions were initiated with enzyme and incubated with (^3H)-substrate and substance for 20 minutes at 30° C. The reaction was terminated by denaturing the enzyme (heating the reaction to 70° C. for 2 minutes). The reaction was then cooled at 4° C. for 10 minutes before the addition of snake venom (Crotalus atrox, 0.2 mg/ml) for 10 minutes at 30° C., thus allowing non-specific hydrolysis of the tritiated substrate. Separation of the remaining unhydrolysed cyclic nucleotide was achieved by a batch binding of the mixture to activated Dowex (200 μl) anion exchange resin. The anion exchange resin bound the charged nucleotides, leaving only hydrolysed (^3H) substrate in the soluble fraction. The soluble fraction (50 μl) was then added to microscint-20 (200 μl) and counted on a Top Count Plate reader. Radioactivity units were plotted against inhibitor concentration and IC50 values obtained using Graph Pad Prism software.
Alternatively, phosphodiesterase activity was measured by scintillation proximity assay (SPA) with [^3H]-cGMP as substrate. Purified PDE10 was diluted and stored in 25 mM Tris-Cl (pH 8.0)/100 mM NaCl/0.05% Tween 20/50% glycerol/3 mM DTT. Assays contained (final concentrations): 50 mM Tris-Cl (pH 7.5)/8.3 mM MgCl2/1.7 mM EGTA/0.5 mg/ml BSA/5% DMSO and 2 ng PDE10 in a final volume of 0.1 mL. Inhibition was evaluated at 8 concentrations in duplicate. Reactions were initiated by addition of enzyme and were terminated after 20 minutes at 30° C. by the addition of 50 μl of SPA beads containing Zn^++. The mixture was shaken, allowed to settle for 3 hours, and counted in a Wallac plate counter. Results (net cpm) were fitted to a four parameter logistic model using Excel Solver®.

C57BL/6 male mice [1] = assay: Conditioned avoidance response (CAR) model of psychosis; assay type: in vivo; conditions: vs vehicle
Description: (§1) Dosing of the compounds is by intraperitoneal (i.p.) injection or oral gavage (p.o.). Intraperitoneal injection is accomplished by restraining the animal, exposing the abdomen and inserting the needle just above the knees on the mouse's right side. Oral gavage is performed by restraining the animal in such a way that its head is tilted back and the esophagus is relatively straight. The gavage needle (20 G×1.5″, Cadence Science) is inserted into the mouth in line with the body and gently pushed along the esophagus and into the stomach. If resistance is encountered the needle is removed and reinserted.
Conditioned avoidance response (CAR) is a behavioral test to evaluate the antipsychotic effect of a test compound. It utilizes a shuttle box (Med Associates, St. Albans, Vt.) with two identical chambers separated by a retractable door. Each chamber is fitted with a metal grid floor that is capable of delivering electric shocks independently. A computer program is used to implement the testing paradigm as well as record the animal's movement between the two chambers through infrared beam sensors. The testing paradigm is as follows. A mouse is placed into one chamber. A light (conditioned stimulus, CS) comes on. Five seconds later, mild electric shocks (0.4 mA; (unconditioned stimulus, US) are delivered to the chamber where the mouse is located (as detected by infrared beams) until the mouse escapes to the adjacent chamber or until 10 sec has elapsed. The US and CS always co-terminate. With randomized inter-trial intervals averaging 15 sec, 30 such CS-US pairing trials are given to each mouse each day. For each trial, an escape response is registered if the mouse crosses to the other chamber after being shocked (i.e., during the 10-sec US period), and an avoidance response is registered if the mouse crosses to the other chamber during the first 5-sec CS only period. The animals are trained in this paradigm for 30-40 days, during which the average percentage of avoidance responses will improve to 80-90%. […] These trained animals are then used for compound testing with the same paradigm.
C57BL/6 male mice were trained in the CAR paradigm to predict and avoid the noxious stimulus (foot shock), reaching a plateau of approximately 25 avoidance responses per 30 trials each day. […] Vehicle treatment and compound treatment were given to the same animals on alternating days, and the effect of compound in reducing avoidance response was analyzed through within-subject comparison (paired t-test).
C57BL/6 male mice were trained in the CAR paradigm to predict and avoid the noxious stimulus (foot shock), reaching a plateau of approximately 25-28 avoidance responses per 30 trials (“training plateau”) each day. […] Vehicle treatment and compound treatment were given to the same animals on alternating days, and the effect of compound in reducing avoidance response was analyzed through within-subject comparison (paired t-test).

C57BL/6 male mice [2] = assay: PCP-induced hyperactivity model of psychosis; assay type: in vivo; conditions: vs vehicle+PCP control
Description: as §1
Psychostimulant-induced hyperactivity is measured by injecting animals with PCP and monitoring the animals' activity levels in VersaMax chambers (Accuscan Instruments, Columbus, Ohio) measuring 40×40 cm. Locomotor activity is detected by photobeam breaks as the animal crosses each beam. The animal is placed in the center of the field and left undisturbed for 20 minutes to measure its spontaneous activity in a novel environment. Measurements used to assess locomotor activity include: horizontal activity, total distance traveled, vertical activity (rearing events—animal raises up on hindlimbs), rotation, stereotypy, and distance traveled in the center compared to total distance traveled (center:total distance ratio). The NMDA antagonist PCP induces a psychosis-like syndrome manifest as hyperactivity and increased stereotypic behavior. Known antipsychotics are able to reverse psychostimulant-induced hyperactivity and stereotypy.
(§2) C57BL/6 male mice were given either compound 1-1 or vehicle by intraperitoneal injection (FIG. 1) or oral gavage (FIG. 2). Twenty minutes (for i.p.) or forty minutes (for p.o.) later, they were injected with PCP (5 mg/kg, i.p.). Ten minutes later, the mice were placed in activity chambers and their locomotor activity in the horizontal dimension was monitored by infrared beam breaks for 20 min (5 consecutive 4-minute intervals (INT) as indicated).
as §2, with “2-1” for “1-1”, “3)” for “1)”, “4).” for “2).”, “40” for “forty”
as §2, with “11-1” for “1-1”, “injection. Five” for “injection (FIG. 1) or oral gavage (FIG. 2). Twenty”, “later” for “(for i.p.) or forty minutes (for p.o.) later,”

[3] = 2 mg/kg oral gavage, 55 minutes prior to testing
[4] = 5 mg/kg oral gavage, 55 minutes prior to testing
[5] = 10 mg/kg oral gavage, 55 minutes prior to testing
[6] = 10 mg/kg i.p., 20 min before PCP (5 mg/kg, i.p.)
[7] = 10 mg/kg oral gavage, 25 minutes prior to testing

T1 sequence (Q9Y233 1-779 isoform Q9Y233-1): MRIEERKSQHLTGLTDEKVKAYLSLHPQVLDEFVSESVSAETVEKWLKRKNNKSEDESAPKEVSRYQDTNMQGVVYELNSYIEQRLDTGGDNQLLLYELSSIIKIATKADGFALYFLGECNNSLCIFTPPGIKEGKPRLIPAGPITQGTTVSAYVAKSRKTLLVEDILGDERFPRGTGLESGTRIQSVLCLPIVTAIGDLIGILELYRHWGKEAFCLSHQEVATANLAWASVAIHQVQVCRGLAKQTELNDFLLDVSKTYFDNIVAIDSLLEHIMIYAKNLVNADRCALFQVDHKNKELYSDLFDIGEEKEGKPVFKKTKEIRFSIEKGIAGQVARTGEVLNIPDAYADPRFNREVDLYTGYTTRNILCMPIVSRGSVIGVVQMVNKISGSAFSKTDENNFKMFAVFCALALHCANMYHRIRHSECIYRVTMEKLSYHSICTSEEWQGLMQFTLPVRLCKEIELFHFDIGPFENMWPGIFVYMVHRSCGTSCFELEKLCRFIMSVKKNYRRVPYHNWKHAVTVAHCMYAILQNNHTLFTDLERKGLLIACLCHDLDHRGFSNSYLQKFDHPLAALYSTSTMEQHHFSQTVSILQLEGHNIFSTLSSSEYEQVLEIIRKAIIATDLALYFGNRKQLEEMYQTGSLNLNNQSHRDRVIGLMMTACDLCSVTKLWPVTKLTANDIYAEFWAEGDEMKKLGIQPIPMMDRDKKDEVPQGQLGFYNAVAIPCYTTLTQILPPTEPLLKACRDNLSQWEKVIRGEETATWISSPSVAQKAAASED

| SMILES | IC50 (PDE10) | reduction of number of avoidance responses (CAR) (C57BL/6 male mice [1]; [4]) | reduction of number of avoidance responses (CAR) (C57BL/6 male mice [1]; [5]) | other results |
| --- | --- | --- | --- | --- |
| CCOC(C(=O)c1ccc(-c2cc(OC)c(Cl)c(OC)c2)o1)c1ccc(-c2nnc(C)o2)cc1 (stereo not drawn) [Compound 63-1, 1-(5-(4-Chloro-3,5-Dimethoxyphenyl)Furan-2-Yl)-2-Ethoxy-2-(4-(5-Methyl-1,3,4-Oxadiazol-2-Yl)Phenyl)Ethanone] | ≤ 1000 nM | significantly reduces | significantly reduces | reduction of number of avoidance responses (CAR) (C57BL/6 male mice [1]; [3]): significantly reduces |
| CCOC(C(=O)c1ccc(-c2cc(OC)c(Br)c(OC)c2)o1)c1ccc(-c2nnc(C)o2)cc1 (stereo not drawn) [Compound 47-1, 1-(5-(4-Bromo-3,5-Dimethoxyphenyl)Furan-2-Yl)-2-Ethoxy-2-(4-(5-Methyl-1,3,4-Oxadiazol-2-Yl)Phenyl)Ethanone] | ≤ 1000 nM | significantly reduces | significantly reduces | reduction of number of avoidance responses (CAR) (C57BL/6 male mice [1]; [3]): a trend that did not reach significance |
| COc1cc(-c2ccc(C(=O)C(OC)c3ccc(-c4nnc(C)o4)cc3)o2)cc(OC)c1Cl (stereo not drawn) [Compound 61-1, 1-(5-(4-Chloro-3,5-Dimethoxyphenyl)Furan-2-Yl)-2-Methoxy-2-(4-(5-Methyl-1,3,4-Oxadiazol-2-Yl)Phenyl)Ethanone] | ≤ 1000 nM | significantly reduces | significantly reduces | reduction of number of avoidance responses (CAR) (C57BL/6 male mice [1]; [3]): significantly reduces |
| COc1cc(-c2coc(C(=O)C(OC)c3ccc(N4CCOCC4)cc3)n2)cc(OC)c1Br (stereo not drawn) [Compound 2-1, 1-(4-(4-Bromo-3,5-Dimethoxyphenyl)Oxazol-2-Yl)-2-Methoxy-2-(4-Morpholinophenyl)-Ethanone] | ≤ 1000 nM |  |  | reduction of number of avoidance responses (CAR) (C57BL/6 male mice [1]; 12 mg/kg oral gavage, 30 minutes before testing): significantly reduces; reduction of PCP-induced hyperactivity (horizontal locomotor activity) (C57BL/6 male mice [2]; [6]): significantly reduces; reduction of PCP-induced hyperactivity (horizontal locomotor activity) (C57BL/6 male mice [2]; 10 mg/kg oral gavage, 40 min before PCP (5 mg/kg, i.p.)): effective |
| CCOC(C(=O)c1ccc(-c2cc(OC)c(Cl)c(OC)c2)o1)c1ccc(-c2nnc(C)s2)cc1 (stereo not drawn) [Compound 65-10] | ≤ 1000 nM | significantly reduces | significantly reduces |  |
| COc1cc(-c2csc(C(=O)C(OC)c3ccc(N4CCOCC4)cc3)n2)cc(OC)c1Br (stereo not drawn) [Compound 1-1, 1-(4-(4-Bromo-3,5-Dimethoxyphenyl)Thiazol-2-Yl)-2-Methoxy-2-(4-Morpholinophenyl)Ethanone] | ≤ 1000 nM |  |  | reduction of PCP-induced hyperactivity (horizontal locomotor activity) (C57BL/6 male mice [2]; [6]): significantly reduces; reduction of PCP-induced hyperactivity (horizontal locomotor activity) (C57BL/6 male mice [2]; oral gavage, dose not given, 40 min before PCP (5 mg/kg, i.p.)): effective |
| COc1cc(-c2ccc(C(=O)C(OC)c3ccc(-c4nnc(C)o4)cc3)o2)cc(OC)c1OC (stereo not drawn) [Compound 36-1, 2-Methoxy-2-(4-(5-Methyl-1,3,4-Oxadiazol-2-Yl)Phenyl)-1-(5-(3,4,5-Trimethoxyphenyl)Furan-2-Yl)Ethanone] | ≤ 1000 nM |  |  | reduction of number of avoidance responses (CAR) (C57BL/6 male mice [1]; 5 mg/kg oral gavage, 25 minutes prior to testing): a trend that did not reach significance; reduction of number of avoidance responses (CAR) (C57BL/6 male mice [1]; [7]): a trend that did not reach significance; reduction of number of avoidance responses (CAR) (C57BL/6 male mice [1]; 15 mg/kg oral gavage, 25 minutes prior to testing): significantly reduces |
| COc1cc(-c2ccc(C(=O)C(OC)c3ccc(-c4nnc(C)s4)cc3)o2)cc(OC)c1Cl (stereo not drawn) [Compound 49-1, 1-(5-(4-Chloro-3,5-Dimethoxyphenyl)Furan-2-Yl)-2-Methoxy-2-(4-(5-Methyl-1,3,4-Thiadiazol-2-Yl)Phenyl)Ethanone] | ≤ 1000 nM |  | significantly reduces |  |
| COc1cc(-c2ccc(C(=O)C(OC)c3ccc(-c4nnc(C)s4)cc3)o2)cc(OC)c1Br (stereo not drawn) [Compound 34-1, 1-(5-(4-Bromo-3,5-Dimethoxyphenyl)Furan-2-Yl)-2-Methoxy-2-(4-(5-Methyl-1,3,4-Thiadiazol-2-Yl)Phenyl)Ethanone] | ≤ 1000 nM |  |  | reduction of number of avoidance responses (CAR) (C57BL/6 male mice [1]; [7]): significantly reduces |
| COc1cc(-c2coc(C(=O)C(OC)c3ccc(-c4nnc(C)o4)cc3)n2)cc(OC)c1Br (stereo not drawn) [Compound 11-1, 1-(4-(4-Bromo-3,5-Dimethoxyphenyl)Oxazol-2-Yl)-2-Methoxy-2-(4-(5-Methyl-1,3,4-Oxadiazol-2-Yl)Phenyl)Ethanone] | ≤ 1000 nM |  |  | reduction of PCP-induced hyperactivity (horizontal locomotor activity) (C57BL/6 male mice [2]; 10 mg/kg i.p., 5 min before PCP (5 mg/kg, i.p.)): significantly reduces |
| COc1cc(-c2ccc(C(=O)C(OC)c3ccc(CN(C)C)cc3)o2)cc(OC)c1Br (stereo not drawn) [Compound 43-1, 1-(5-(4-Bromo-3,5-Dimethoxyphenyl)Furan-2-Yl)-2-(4-((Dimethylamino)Methyl)Phenyl)-2-Methoxyethanone] | ≤ 1000 nM |  |  |  |

— US10106516B2, “PDE10 inhibitors and related compositions and methods” (Omeros Corporation, priority 2010, dated 2018)
